Data on six compounds can be found in patent US4198431A, “Alkyl N-(3-trifluoromethylphenyl)-anthranilate” (Hokuriku Pharmaceutical Co., Ltd., priority 1978, dated 1980).

Where two headings read alike, the source gives them in different places.

Broadly, the LD50 is the dose at which mortality reaches 50%.

For data set [1], the system named is carrageenin edema. Description: Carrageenin edema-preventing effect of ointment, comparison with Bufexamac (Table 3). The data set is classed as in vivo, rat (Wistar, male). As to conditions: ointment 50 mg applied 3, 2 and 1 hours before carrageenin; for swelling (paw volume increase), 1 hr: control 48%; for swelling (paw volume increase), 2 hr: control 90%, ***p 0.02; for swelling (paw volume increase), 3 hr: control 95%, **p 0.05; for swelling (paw volume increase), 4 hr: control 91%; for swelling (paw volume increase), 5 hr: control 88%. On the procedure: The butyl ester of the invention and Bufexamac were further compared in ointment form with respect to the edema-preventing effect thereof. Using eight (8) Wistar male rats, weighing 120 to 140 g., as one grouping, 50 mg. each of the test ointments was applied onto the sole of rear paws 3, 2 and 1 hours before an agent which induced inflammation was administered, after the paw volume at one side was measured. Carrageenin (1%: 0.1 ml.) was subcutaneously administered as the inflammation-inducingagent. Thereafter, the paw volume was again measured every hour over a period of five (5) hours. An edema-preventing rate was determined from the volume prior to administration of the inflammation-inducing agent.
On the technique in general: Carrageenan injected into the paw causes an acute inflammation.

The nature of data set [2]: Acute toxicity (LD50) after oral administration. The data set is classed as in vivo. Conditions: mouse, in vivo. The source says: (§1) Using ddY type male mice, acute toxicity (LD50) was examined after oral administration of the methyl, ethyl and butyl esters, respectively.
(§2) In a similar manner, LD50 was examined with regard to the C5 -C8 higher alkyl esters.

In data set [3] the test system is ddY type male mice. Description: Acute toxicity (LD50) after oral administration. The data set is classed as in vivo. As to conditions: oral, mice; comparison with methyl or ethyl ester.
Description: as §1, §2

Data set [4] concerns carrageenin edema. As to the kind of experiment: Carrageenin edema-preventing effect, 5% ointment (Table 2). The data set is classed as in vivo, rat (Wistar, female). Conditions: for swelling percent (rate of volume increase), 1 hr / preventing rate (rate of edema prevention), 1 hr / swelling percent (rate of volume increase), 2 hr / preventing rate (rate of edema prevention), 2 hr / swelling percent (rate of volume increase), 3 hr / preventing rate (rate of edema prevention), 3 hr / swelling percent (rate of volume increase), 4 hr / preventing rate (rate of edema prevention), 4 hr / swelling percent (rate of volume increase), 5 hr / preventing rate (rate of edema prevention), 5 hr: 5% ointment, 50 mg/rat; for swelling percent (rate of volume increase), 1 hr / swelling percent (rate of volume increase), 2 hr / swelling percent (rate of volume increase), 3 hr / swelling percent (rate of volume increase), 4 hr / swelling percent (rate of volume increase), 5 hr: sole of rear paws; for swelling percent (rate of volume increase), 1 hr: control 37.1%; for preventing rate (rate of edema prevention), 1 hr / preventing rate (rate of edema prevention), 2 hr / preventing rate (rate of edema prevention), 3 hr / preventing rate (rate of edema prevention), 4 hr / preventing rate (rate of edema prevention), 5 hr: calculated in contrast to control; for swelling percent (rate of volume increase), 2 hr: control 74.4%; for swelling percent (rate of volume increase), 3 hr: control 83.9%; for swelling percent (rate of volume increase), 4 hr: control 83.3%; for swelling percent (rate of volume increase), 5 hr: control 80.8%. As to the method: Next, the carrageenin edema-preventing effect [E. Yamazaki, et al., Folia Pharmacologica Japonica, vol. 63, page 302 (1967)] was examined using an ointment containing a five-percent(5%) concentration of active ingredient. Using ten (10) Wistar female rats as one grouping, each test compound was applied at the rate of fifty (50) mg/rat onto the sole of the rear paws […] (30) minutes. After carrageenin was subcutaneously administered (1% carrageenin: 0.1 ml/rat) at the ointment-administered area, the volume was measured over a period of five (5) hours, during which a definite amount (50 mg/rat) of each test compound was administered every hour over a period of four (4) hours after the first measurement of the paw volume. The edema-preventing effect was thus determined in contrast to known compounds. In Table 2 following, the swelling percent (rate of volume increase) is given. The figures in parenthesis indicate the rate of edema prevention which was calculated in contrast to control. In control, carrageenin alone was administered.

The mark [5] stands for this setting: oral, ddY type male mice, 95% confidence limit in parentheses, read-out: LD50 (95% Confidence Limit).

On to `CCCCOc1ccc(CC(=O)NO)cc1` [Bufexamac, reference compound], for which, in data set [1], the preventing rate (edema-preventing rate), 1 hr is 10.4%; the “swelling (paw volume increase), 1 hr” value came to 43%; the preventing rate (edema-preventing rate), 2 hr turned out to be 18.9%; the “swelling (paw volume increase), 2 hr” value amounted to 73%. Moreover, in data set [1], the preventing rate (edema-preventing rate), 3 hr is 18.9%; the “swelling (paw volume increase), 3 hr” value worked out at 76%; the preventing rate (edema-preventing rate), 4 hr was 16.5%; the “swelling (paw volume increase), 4 hr” value came out at 76%. Moreover, in data set [1], the preventing rate (edema-preventing rate), 5 hr was found to be 17.2% and the “swelling (paw volume increase), 5 hr” value was 72%.
For `CCCCOC(=O)c1ccccc1Nc1cccc(C(F)(F)F)c1` [Compound of Invention, n-Butyl N-(3-trifluoromethylphenyl)anthranilate], in data set [2] (setting [5]), the LD50 came out at 3100 mg/kg. Also, the “LD50 relative to that of the corresponding methyl or ethyl ester” value in data set [3] is reported as 1/2. In data set [4], the “swelling percent (rate of volume increase), 1 hr” value is on record as 23.5%; the preventing rate (rate of edema prevention), 1 hr was 36.7%; the “swelling percent (rate of volume increase), 2 hr” value worked out at 47.3%; the preventing rate (rate of edema prevention), 2 hr was 36.4%. Further, in data set [4], the “swelling percent (rate of volume increase), 3 hr” value worked out at 54.8%; the preventing rate (rate of edema prevention), 3 hr was 34.7%; the “swelling percent (rate of volume increase), 4 hr” value worked out at 55.5%; the preventing rate (rate of edema prevention), 4 hr is 33.4%. In data set [4], the “swelling percent (rate of volume increase), 5 hr” value is listed as 50.0% and the preventing rate (rate of edema prevention), 5 hr was 38.1%. Moreover, in data set [4] (versus N-(3-trifluoromethylphenyl)anthranilic acid, Table 2), the “edema-preventing effect as compared to the known compound” value is on record as “improved edema-preventing effect”. Besides, in data set [1], the preventing rate (edema-preventing rate), 1 hr is 10.4%; the “swelling (paw volume increase), 1 hr” value was determined as 43%; the preventing rate (edema-preventing rate), 2 hr was determined as 30%; the “swelling (paw volume increase), 2 hr” value is given as 63%. In addition, in data set [1], the preventing rate (edema-preventing rate), 3 hr was 28.4%; the “swelling (paw volume increase), 3 hr” value is recorded as 68%; the preventing rate (edema-preventing rate), 4 hr amounted to 24.2%; the “swelling (paw volume increase), 4 hr” value came to 69%. Also, in data set [1], the preventing rate (edema-preventing rate), 5 hr came to 22.7% and the “swelling (paw volume increase), 5 hr” value stood at 68%.
On to `CCCCCCCCOC(=O)c1ccccc1Nc1cccc(C(F)(F)F)c1` [Example 12], for which the LD50 in data set [2] (po, n-octyl ester, examined in a similar manner, read-out: LD50) is ~5000 mg/kg.
Consider `COC(=O)c1ccccc1Nc1cccc(C(F)(F)F)c1` [I, Methyl N-(3-trifluoromethylphenyl)anthranilate, reference compound], for which, in data set [2] (setting [5]), the median lethal dose (LD50) worked out at 1620 mg/kg.
Same read-out and setting: next, `CCOC(=O)c1ccccc1Nc1cccc(C(F)(F)F)c1` [II, Ethyl N-(3-trifluoromethylphenyl)anthranilate, reference compound]: 1820 mg/kg.
For the compound `O=C(O)c1ccccc1Nc1cccc(C(F)(F)F)c1` [N-(3-trifluoromethylphenyl)anthranilic acid, reference compound], in data set [4], the “swelling percent (rate of volume increase), 1 hr” value was 28.4%; the preventing rate (rate of edema prevention), 1 hr was 23.5%; the “swelling percent (rate of volume increase), 2 hr” value worked out at 61.8%; the preventing rate (rate of edema prevention), 2 hr is 16.9%. Moreover, in data set [4], the “swelling percent (rate of volume increase), 3 hr” value was found to be 62.3%; the preventing rate (rate of edema prevention), 3 hr was 25.8%; the “swelling percent (rate of volume increase), 4 hr” value is reported as 61.4%; the preventing rate (rate of edema prevention), 4 hr is 26.3%. In data set [4], the “swelling percent (rate of volume increase), 5 hr” value is listed as 61.2% and the preventing rate (rate of edema prevention), 5 hr is 24.2%.
